Test results as given in patent US8629157B2, “Pyrrolidine compounds which modulate the CB2 receptor” (Boehringer Ingelheim International GmbH, priority 2009, dated 2014).
Where two headings read alike, the source gives them in different places.

Biological target: human CB2R (Homo sapiens, UniProt P34972)
Assay: CB2R mediated modulation of cAMP synthesis
Type: cell-based
Experimental: B. CB2R Mediated Modulation of cAMP Synthesis:
Compounds of the invention were evaluated for their CB2 agonist or inverse agonistic activity in accordance with the following experimental method.
CHO cells expressing human CB2R (Euroscreen) were plated at a density of 5000 cells per well in 384 well plates and incubated overnight at 37° C. After removing the media, the cells were treated with test compounds diluted in stimulation buffer containing 1 mM IBMX, 0.25% BSA and 10 uM Forskolin. The assay was incubated for 30 minutes at 37° C. Cells were lysed and the cAMP concentration was measured using DiscoverX-XS cAMP kit, following the manufacturer's protocol. In this setting, agonists will decrease forskolin induced production of cAMP while inverse agonists will further increase forskolin induced production of cAMP. EC50 of agonists were calculated as follows. The maximal amount of cAMP produced by forskolin compared to the level of cAMP inhibited by 1 uM CP55940 is defined as 100%. […] Data was analyzed using a four-parameter logistic model. (Model 205 of XLfit 4.0).

[1] = CHO cells expressing human CB2R, inhibition of forskolin-stimulated cAMP synthesis, mean, read-out: CB2 CAMP @ EC50 nM (mean)

human CB2R, sequence (P34972 whole entry): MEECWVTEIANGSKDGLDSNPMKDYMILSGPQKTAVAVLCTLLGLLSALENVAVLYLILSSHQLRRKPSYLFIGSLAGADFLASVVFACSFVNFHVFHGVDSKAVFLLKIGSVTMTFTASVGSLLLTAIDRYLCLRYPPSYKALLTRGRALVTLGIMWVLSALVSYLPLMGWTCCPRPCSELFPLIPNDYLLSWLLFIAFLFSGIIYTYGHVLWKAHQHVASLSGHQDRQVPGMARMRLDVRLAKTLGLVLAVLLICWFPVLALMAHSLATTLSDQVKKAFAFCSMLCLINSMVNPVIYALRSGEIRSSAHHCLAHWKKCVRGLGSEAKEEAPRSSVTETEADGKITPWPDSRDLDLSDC

## CCc1sc(NC(=O)[C@@H]2C[C@@H](O)CN2CC2CCOCC2)nc1-c1ccccc1 [(2S,4R)-4-Hydroxy-1-(tetrahydro-pyran-4-ylmethyl)-pyrrolidine-2-carboxylic acid (5-ethyl-4-phenyl-thiazol-2-yl)-amide]
  EC50: 7.93 nM

## CC(C)(C)c1nnc(NC(=O)[C@@H]2C[C@@H](O)CN2CC2CCOCC2)s1 [(2S,4R)-4-Hydroxy-1-(tetrahydro-pyran-4-ylmethyl)-pyrrolidine-2-carboxylic acid (5-tert-butyl-1,3,4-thiadiazol-2-yl)-amide]
  EC50: 69.8 nM

## CC(C)(C)c1cc(NC(=O)[C@@H]2C[C@@H](O)CN2CC2CCOCC2)no1 [(2S,4R)-4-Hydroxy-1-(tetrahydro-pyran-4-ylmethyl)-pyrrolidine-2-carboxylic acid (5-tert-butyl-isoxazol-3-yl)-amide]
  EC50: 3.89 nM

## O=C(Nc1nc(-c2ccc(Cl)cc2)cs1)[C@@H]1C[C@@H](O)CN1CC1CCOCC1 [(2S,4R)-4-Hydroxy-1-(tetrahydro-pyran-4-ylmethyl)-pyrrolidine-2-carboxylic acid [4-(4-chloro-phenyl)-thiazol-2-yl]-amide]
  EC50: 71.2 nM

## CC(C)(C)c1cc(NC(=O)[C@@H]2C[C@H](O)CN2c2ncc(C(F)(F)F)cc2Cl)no1 [(2S,4S)-1-(3-Chloro-5-trifluoromethyl-pyridin-2-yl)-4-hydroxy-pyrrolidine-2-carboxylic acid (5-tert-butyl-isoxazol-3-yl)-amide]
  EC50: 1.35 nM

## O=C(Nc1nc(-c2ccccc2)ns1)[C@@H]1C[C@H](O)CN1c1ccc(C(F)(F)F)cn1 [(2S,4S)-4-Hydroxy-1-(5-trifluoromethyl-pyridin-2-yl)-pyrrolidine-2-carboxylic acid (3-phenyl-1,2,4-thiadiazol-5-yl)-amide]
  EC50: 18.4 nM

## CC(C)(C)c1cc(NC(=O)[C@@H]2C[C@H](O)CN2c2ccc(C(F)(F)F)cn2)no1 [(2S,4S)-4-Hydroxy-1-(5-trifluoromethyl-pyridin-2-yl)-pyrrolidine-2-carboxylic acid (5-tert-butyl-isoxazol-3-yl)-amide]
  EC50: 27.9 nM

## CC(C)(C)c1cc(NC(=O)[C@@H]2C[C@H](O)CN2C2CCOCC2)on1 [(2S,4S)-4-Hydroxy-1-(tetrahydro-pyran-4-yl)-pyrrolidine-2-carboxylic acid (3-tert-butyl-isoxazol-5-yl)-amide]
  EC50: 59 nM

## CC(C)(C)c1nc(NC(=O)[C@@H]2C[C@H](O)CN2CC2CCOCC2)sc1C#N [(2S,4S)-4-Hydroxy-1-(tetrahydro-pyran-4-ylmethyl)-pyrrolidine-2-carboxylic acid (4-tert-butyl-5-cyano-thiazol-2-yl)-amide]
  EC50: 380 nM

## CC(C)N1C[C@@H](O)C[C@H]1C(=O)Nc1cc(C(C)(C)C)no1 [(2S,4S)-4-Hydroxy-1-isopropyl-pyrrolidine-2-carboxylic acid (3-tert-butyl-isoxazol-5-yl)-amide]
  EC50: 421 nM

## O=C(Nc1ccc(C(F)(F)F)cn1)[C@H]1CCCN1c1ccc(C(F)(F)F)cc1 [(R)-1-(4-Trifluoromethyl-phenyl)-pyrrolidine-2-carboxylic acid (5-trifluoromethyl-pyridin-2-yl)-amide]
  EC50: 70.7 nM

## CC(C)(C)c1nnc(NC(=O)[C@@H]2CCCN2C(=O)N2CCS(=O)(=O)CC2)s1 [(S)-1-(1,1-Dioxo-1l^6-thiomorpholine-4-carbonyl)-pyrrolidine-2-carboxylic acid (5-tert-butyl-1,3,4-thiadiazol-2-yl)-amide]
  EC50: 436 nM

## CC(C)(C)c1cc(NC(=O)[C@@H]2CCC(=O)N2c2cccc(F)c2F)on1 [(S)-1-(2,3-Difluoro-phenyl)-5-oxo-pyrrolidine-2-carboxylic acid (3-tert-butyl-isoxazol-5-yl)-amide]
  EC50: 261 nM

## CCC(C)CN1CCC[C@H]1C(=O)Nc1cc(C(C)(C)C)no1 (stereo partly drawn) [(S)-1-(2-Methyl-butyl)-pyrrolidine-2-carboxylic acid (3-tert-butyl-isoxazol-5-yl)-amide]
  EC50: 0.116 nM

## CC(C)(C)c1cc(NC(=O)[C@@H]2CCC(=O)N2c2ccc(Cl)c(Cl)c2)on1 [(S)-1-(3,4-Dichloro-phenyl)-5-oxo-pyrrolidine-2-carboxylic acid (3-tert-butyl-isoxazol-5-yl)-amide]
  EC50: 16.1 nM

## CC(C)(C)c1cc(NC(=O)[C@@H]2CCC(=O)N2c2ccc(Cl)c(Cl)c2)no1 [(S)-1-(3,4-Dichloro-phenyl)-5-oxo-pyrrolidine-2-carboxylic acid (5-tert-butyl-isoxazol-3-yl)-amide]
  EC50: 49.7 nM

## CC(C)(C)c1cc(NC(=O)[C@@H]2CCCN2Cc2ccc(F)c(F)c2)on1 [(S)-1-(3,4-Difluoro-benzyl)-pyrrolidine-2-carboxylic acid (3-tert-butyl-isoxazol-5-yl)-amide]
  EC50: 0.208 nM

## CC(C)(C)c1cc(NC(=O)[C@@H]2CCC(=O)N2c2ccc(F)c(F)c2)on1 [(S)-1-(3,4-Difluoro-phenyl)-5-oxo-pyrrolidine-2-carboxylic acid (3-tert-butyl-isoxazol-5-yl)-amide]
  EC50: 16 nM

## CC(C)(C)c1cc(NC(=O)[C@@H]2CCC(=O)N2c2ccc(F)c(F)c2)no1 [(S)-1-(3,4-Difluoro-phenyl)-5-oxo-pyrrolidine-2-carboxylic acid (5-tert-butyl-isoxazol-3-yl)-amide]
  EC50: 64.2 nM

## CC(C)(C)c1cc(NC(=O)[C@@H]2CCCN2c2ncc(Cl)cc2Cl)on1 [(S)-1-(3,5-Dichloro-pyridin-2-yl)-pyrrolidine-2-carboxylic acid (3-tert-butyl-isoxazol-5-yl)-amide]
  EC50: 0.135 nM

## CC(C)(C)c1cc(NC(=O)[C@@H]2CCC(=O)N2c2ccc(F)c(Cl)c2)on1 [(S)-1-(3-Chloro-4-fluoro-phenyl)-5-oxo-pyrrolidine-2-carboxylic acid (3-tert-butyl-isoxazol-5-yl)-amide]
  EC50: 26.7 nM

## CC(C)(C)c1cc(NC(=O)[C@@H]2CCC(=O)N2c2ccc(F)c(Cl)c2)no1 [(S)-1-(3-Chloro-4-fluoro-phenyl)-5-oxo-pyrrolidine-2-carboxylic acid (5-tert-butyl-isoxazol-3-yl)-amide]
  EC50: 59.3 nM

## CC(C)(C)c1cc(NC(=O)[C@@H]2CC(=O)CN2c2ncc(C(F)(F)F)cc2Cl)no1 [(S)-1-(3-Chloro-5-trifluoromethyl-pyridin-2-yl)-4-oxo-pyrrolidine-2-carboxylic acid (5-tert-butyl-isoxazol-3-yl)-amide]
  EC50: 40.2 nM

## CC(C)(C)c1cc(NC(=O)[C@@H]2CCCN2c2ncc(C(F)(F)F)cc2Cl)on1 [(S)-1-(3-Chloro-5-trifluoromethyl-pyridin-2-yl)-pyrrolidine-2-carboxylic acid (3-tert-butyl-isoxazol-5-yl)-amide]
  EC50: 0.055 nM

## CC(C)(C)c1csc(NC(=O)[C@@H]2CCCN2c2ncc(C(F)(F)F)cc2Cl)n1 [(S)-1-(3-Chloro-5-trifluoromethyl-pyridin-2-yl)-pyrrolidine-2-carboxylic acid (4-tert-butyl-thiazol-2-yl)-amide]
  EC50: 1.95 nM

## CC(C)(C)c1cc(NC(=O)[C@@H]2CCCN2c2ncc(C(F)(F)F)cc2Cl)no1 [(S)-1-(3-Chloro-5-trifluoromethyl-pyridin-2-yl)-pyrrolidine-2-carboxylic acid (5-tert-butyl-isoxazol-3-yl)-amide]
  EC50: 0.08 nM

## CC(C)(C)c1cc(NC(=O)[C@@H]2CCC(=O)N2c2cccc(Cl)c2)on1 [(S)-1-(3-Chloro-phenyl)-5-oxo-pyrrolidine-2-carboxylic acid (3-tert-butyl-isoxazol-5-yl)-amide]
  EC50: 203 nM

## CC(C)(C)c1cc(NC(=O)[C@@H]2CCC(=O)N2c2cccc(Cl)c2)no1 [(S)-1-(3-Chloro-phenyl)-5-oxo-pyrrolidine-2-carboxylic acid (5-tert-butyl-isoxazol-3-yl)-amide]
[1]
  EC50: 296 nM

## COc1ccc(N2C(=O)CC[C@H]2C(=O)Nc2cc(C(C)(C)C)no2)cc1F [(S)-1-(3-Fluoro-4-methoxy-phenyl)-5-oxo-pyrrolidine-2-carboxylic acid (3-tert-butyl-isoxazol-5-yl)-amide]
  EC50: 314 nM

## CC(C)(C)c1cc(NC(=O)[C@@H]2CCC(=O)N2c2ncc(C(F)(F)F)cc2F)on1 [(S)-1-(3-Fluoro-5-trifluoromethyl-pyridin-2-yl)-5-oxo-pyrrolidine-2-carboxylic acid (3-tert-butyl-isoxazol-5-yl)-amide]
  EC50: 5 nM

## CC(C)(C)c1cc(NC(=O)[C@@H]2CCC(=O)N2c2cccc(F)c2)on1 [(S)-1-(3-Fluoro-phenyl)-5-oxo-pyrrolidine-2-carboxylic acid (3-tert-butyl-isoxazol-5-yl)-amide]
  EC50: 357 nM

## CC(C)(C)c1cc(NC(=O)[C@@H]2CCCN2CCCO)on1 [(S)-1-(3-Hydroxy-propyl)-pyrrolidine-2-carboxylic acid (3-tert-butyl-isoxazol-5-yl)-amide]
  EC50: 28.6 nM

## CC(C)(C)c1nnc(NC(=O)[C@@H]2CCCN2CCCO)s1 [(S)-1-(3-Hydroxy-propyl)-pyrrolidine-2-carboxylic acid (5-tert-butyl-1,3,4-thiadiazol-2-yl)-amide]
  EC50: 320 nM

## O=C(Nc1nc(-c2ccccc2)ns1)[C@@H]1CCC(=O)N1c1ncc(C(F)(F)F)cc1Cl [(S)-1-(3-chloro-5-trifluoromethyl-pyridin-2-yl)-5-oxo-pyrrolidine-2-carboxylic acid (3-phenyl-1,2,4-thiadiazol-5-yl)-amide]
[1]
  EC50: 0.549 nM

## CC(C)(C)c1cc(NC(=O)[C@@H]2CCC(=O)N2c2ncc(C(F)(F)F)cc2Cl)no1 [(S)-1-(3-chloro-5-trifluoromethyl-pyridin-2-yl)-5-oxo-pyrrolidine-2-carboxylic acid (5-tert-butyl-isoxazol-3-yl)-amide]
  EC50: 6.5 nM
